This is an account of results in US9844546B2, “Antibody against human HIF hydroxylase” (OXFORD UNIVERSITY INNOVATION LIMITED, priority 2001, dated 2017).

The target in one assay is T1, VHL E3 ubiquitin ligase (Homo sapiens, UniProt P40337).
T1 construct: expressed in transfected cells; host or cells: 786-0 cells stably transfected with pcDNA3 VHL.HA (whole extract, anti-HA immunoprecipitation)
Put plainly: VHL E3 interaction assay with 35S-labelled tat-ODD IVTT products. Format: binding. The note with it: after modification by cell extracts. From the text:
Concordant with the ubiquitination assays discussed above NODD (HIF-1α 343-417) and CODD (HIF-1α 549-582) polypeptides, but not their corresponding proline mutants (HIF-1α 343-417/P402A and HIF-1α 549-582/P564G), bound to VHL E3 ubiquitin ligase after modification by cell extracts. The ^35S-methionine labelled recombinant polypeptides therefore interacted with VHL, supporting the results of the ubiquitination experiments discussed above. The interaction was enhanced by the presence of cell extracts which promote hydroxylation of the prolines at positions 402 and 564 ^19. In contrast, no binding occurred using peptides in which prolines were mutated.
For VHL E3 interaction assays ^35S-methionine labelled HIF-1a substrates were prepared by transcription/translation using TnT7 rabbit reticulocyte lysate (Promega). 100 μM DFO was added to the reaction to suppress prolyl hydroxylase activity of the reticulocyte lysate. Substrate modification was achieved by incubation of HIF-1α translate with RCC4 cell lysate in the presence of ferrous chloride (100 μM). Interaction with VHL E3 was analysed as described previously ^21.

Another assay has as its system U2OS cells. Put plainly: U2OS cells stably transfected with doxycycline-inducible NODD or CODD. In kind it is cell-based, human. The method, then:
To explore further the therapeutic potential of NODD and CODD polypeptides to activate endogenous HIF we stably transfected U2OS cells with doxycycline-inducible NODD (doxNODD) and CODD constructs (doxCODD) encoding identical sequences to those used for transient transfections.
Cells stably transfected with NODD or CODD controlled by the tetracycline-inducible system were exposed to doxycycline. Cell extracts were prepared 0, 16, 24 and 48 hours after exposure to doxycycline. The extracts of doxNODD (HIF-1α aa343-417), doxCODD (HIF-1α aa549-82) and control cells (empty vector) were then immunoblotted for HIF-1α protein. Increased HIF-1α signals were detected from 16-48 hours following doxycycline administration in doxNODD and doxCODD cells but not in empty vector cells. Levels of HIF-1α induced by hypoxia were also measured for comparison. The endogenous HIF-1α induction was doxycycline dose (0.2-3.2 μg/ml) and time dependent, peaking after 48 hours. Maximal levels were about 20% and about 70% of HIF-1α levels seen following hypoxic or DFO treatment of the doxNODD and doxCODD cells respectively. […]
Stably transfected cell lines were generated by transfecting U2OS cells bearing the reverse tetracycline responsive transactivator ^34 and the tetKRAB silencer construct ^36 with pUHD/HIF plasmids. Following selection in G418 (1 mg/ml) individual colonies were picked. DoxNODD (F21) and doxCODD (myc19) clones expressed pUHD/HIF-1aa343-417/3NLS/c-myc and pUHD/HIF-1α aa549-82/3NLS/c-myc respectively. […]
Cell extracts were prepared in buffer (8M urea, 10% glycerol, 1% SDS, 5 mM DTT, 10 mM Tris/pH 6.8), separated by SDS-PAGE and transferred to Immobilon-P membrane (Millipore). Primary antibodies against HIF-1α, c-myc tag and HA tag were from Transduction Laboratories, Innogenex and Roche Molecular respectively. […]

In the next assay the test system is U2OS and Hep3B cells. The assay is described as follows: HRE-dependent luciferase reporter assay after transient transfection of NODD/CODD plasmids. The note with it: normoxic conditions, 24 hours. Format: cell-based, human. From the text:
Since normoxic HIFα degradation is saturable ^17 and depends on sub-regions within the ODD we tested whether peptides encoding the HIF-1α amino terminal ODD (NODD) and carboxy terminal ODD (CODD) ^21 could affect HIF activity as measured by hypoxia response element (HRE)-dependent reporter gene expression. Briefly, Degradation is prevented by the NODD and CODD polypeptides competing for prolyl hydroxylation and/or VHL binding, thereby blocking subsequent ubiquitination. We constructed plasmids encoding NODD (HIF-1-α aa 343-417) or CODD (HIF-1-α aa 549-582) linked to nuclear localisation sequences and a c-myc epitope tag. These plasmids were transiently co-transfected into U2OS and Hep3B cells with an HRE-dependent luciferase reporter plasmid. […]
For reporter gene assays DNA fragments encoding HIF-1α amino acids 343-417, 380-417, 390-417, 390-410, 343-400, 530-95, 530-82, 549-82, 556-74 and 530-62 were generated by PCR using oligonucleotides containing 5′ SacII or 3′ AscI sites and inserted into a pCMV/myc/nuc (Invitrogen) derivative bearing these sites in frame with the NLS and epitope tag. […] To generate tet-operator dependent plasmids the open reading frames from the aa343-417 and aa549-82 constructs were subcloned into pUHD 10 ^34. […]

Assay [1] deals with human microvascular endothelial cells (HMEC-1). Put plainly: Tubule formation assay, co-culture with HMEC-1. In kind it is cell-based. The note with it: intermittent doxycycline over 5 days. From the text: Artificial activation of the HIF signalling pathway using the methods of the invention should induce angiogenesis and will therefore be of potential therapeutic use in ischaemic disease. We tested the effect of polypeptide induced HIF stabilisation in an in vitro angiogenesis assay, co-culturing human microvascular endothelial cells (HMEC-1) with empty vector transfected or doxCODD cells. In view of the possibility of sustained activation inducing a negative feedback loop we opted to test the effects of intermittent induction. […] As a positive control epidermal Growth Factor (EGF; 5 ng/ml), which is known to induce growth of HMEC-1, was used. To extend these observations into an in vivo model we assayed the effects of injecting tat-fusion proteins into polyurethane sponges implanted subcutaneously in mice. Intermittent injections on days 1, 2, 4 and 5 led to a markedly accelerated angiogenic response assayed on day 7 when compared with sponges injected with proline mutant fusion proteins, excluding a contribution from the tat component ^28. […]
doxCODD or empty vector cells were co-cultivated with human microvascular endothelial cells (HMEC-1) in a ratio of 2:1 in DMEM 10% doxycycline free FCS (Clontech), 2 mM Glutamine and 100 U/ml Penicillin/100 μg/ml Streptomycin. […] Endothelial cells were detected using antibodies to von Willebrand factor (vWF) (Dako).

T1 sequence (P40337 whole entry): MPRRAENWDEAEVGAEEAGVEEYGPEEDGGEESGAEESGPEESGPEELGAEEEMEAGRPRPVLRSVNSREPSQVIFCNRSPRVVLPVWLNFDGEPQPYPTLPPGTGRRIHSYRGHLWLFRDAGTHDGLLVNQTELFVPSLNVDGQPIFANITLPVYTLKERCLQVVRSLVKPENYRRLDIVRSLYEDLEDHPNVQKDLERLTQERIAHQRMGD
T1 sequence (Q15370 whole entry partner): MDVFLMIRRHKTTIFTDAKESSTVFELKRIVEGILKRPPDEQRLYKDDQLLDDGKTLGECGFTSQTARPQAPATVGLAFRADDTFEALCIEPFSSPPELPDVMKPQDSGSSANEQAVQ
T1 sequence (Q15369 whole entry partner): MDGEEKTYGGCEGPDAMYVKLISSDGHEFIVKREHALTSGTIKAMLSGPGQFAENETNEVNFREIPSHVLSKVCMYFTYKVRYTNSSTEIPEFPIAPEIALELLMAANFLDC
T1 sequence (Q13617 whole entry partner): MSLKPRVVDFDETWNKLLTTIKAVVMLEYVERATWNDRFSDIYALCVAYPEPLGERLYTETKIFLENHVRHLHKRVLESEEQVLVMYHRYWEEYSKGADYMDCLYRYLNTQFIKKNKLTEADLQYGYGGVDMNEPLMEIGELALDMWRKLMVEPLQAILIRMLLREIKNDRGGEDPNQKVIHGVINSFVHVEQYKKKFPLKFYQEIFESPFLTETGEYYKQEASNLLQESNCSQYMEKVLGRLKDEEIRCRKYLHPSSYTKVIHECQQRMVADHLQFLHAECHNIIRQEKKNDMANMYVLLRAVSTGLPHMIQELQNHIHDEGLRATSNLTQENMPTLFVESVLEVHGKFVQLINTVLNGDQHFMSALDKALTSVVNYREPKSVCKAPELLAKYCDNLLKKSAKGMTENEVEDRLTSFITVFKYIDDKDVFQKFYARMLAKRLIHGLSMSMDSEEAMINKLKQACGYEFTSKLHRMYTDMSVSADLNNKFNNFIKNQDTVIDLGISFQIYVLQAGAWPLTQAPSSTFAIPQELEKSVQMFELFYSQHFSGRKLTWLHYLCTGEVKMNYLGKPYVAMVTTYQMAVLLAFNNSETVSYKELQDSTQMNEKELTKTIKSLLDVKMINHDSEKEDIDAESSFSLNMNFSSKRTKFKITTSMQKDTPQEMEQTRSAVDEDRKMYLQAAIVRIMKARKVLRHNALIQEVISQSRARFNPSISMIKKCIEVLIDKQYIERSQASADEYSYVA
T1 sequence (P62877 whole entry partner): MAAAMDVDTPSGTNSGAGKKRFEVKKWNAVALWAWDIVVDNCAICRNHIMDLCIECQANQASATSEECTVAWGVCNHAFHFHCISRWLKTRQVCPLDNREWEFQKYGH

On to “CODD: HIF-1α carboxy terminal ODD polypeptide (aa 549-582) with nuclear localisation sequences and c-myc tag, plasmid expressed”, for which the “binding to VHL E3 ubiquitin ligase” value with VHL E3 ubiquitin ligase is on record as “bound”. Further, the 3H-glucose uptake entry in the assay on U2OS cells (24 hours induction with doxycycline, versus empty vector cells) is recorded as “enhanced uptake of ^3H-glucose”. Moreover, the “ubiquitination of exogenous 35S-methionine labelled HIF-1α” value in the assay with U2OS cells (cell extracts versus empty vector extracts) is on record as “markedly reduced”. Besides, the “Maximal HIF-1α level relative to hypoxic or DFO treatment” value in the assay with U2OS cells (doxycycline 0.2-3.2 μg/ml, peaking after 48 hours) is reported as “about 70%”. In the assay on U2OS cells (doxycycline repeatedly added, 0-8 days), the “Glut-1 mRNA (ribonuclease protection)” value is “increased for the first 4 days and then declined”. Besides, the “CAIX mRNA (ribonuclease protection)” value in the assay on U2OS cells (doxycycline, 24 and 48 hours) is on record as “markedly induced mRNA levels”. Also, in the assay on U2OS and Hep3B cells, the “HRE-dependent relative luciferase activity” value is recorded as “increased relative luciferase activity”. In assay [1], the “tubule formation of co-cultured endothelial cells” value is given as “assembly of co-cultured endothelial cells into complex tubular structures”.
